# Measurements as given in PMC7253423, “Quassinoid analogs with enhanced efficacy for treatment of hematologic malignancies target the PI3Kγ isoform” (Communications Biology, 2020).
# pIC50: −log10 of the molar value. “And” between values parts separate entries of the source, which are not always exact repeats. Equal values may be shown once.
# How the values were obtained:
# GST-tagged PI3Kγ protein = molecular target: T1, GST-tagged PI3Kγ protein (Homo sapiens, UniProt P48736); assay: In vitro pull-down assay with purified protein; format: binding; settings: 0, 300 μM, or 500 μM compound, Dynabeads M-280 Streptavidin
# T1 construct: made in house; host or cells: E. coli BL21 (DE3)
# Excerpt: PIK3CG cDNA (Plasmid #20574) was purchased from Addgene and cloned into a pGEX-6P-1 vector (GE Healthcare, Madison, WI, USA) with SalI and NotI (NEB, USA). This GST-tagged PIK3CG plasmid was transformed into E. coli BL21 (DE3)-competent cells (Life Technologies, Carlsbad, CA, USA) for in vitro expression according to Molecular Cloning (Third Edition).
# Thirty microgram of purified GST-tagged proteins were pre-cleared with Dynabeads M-280 Streptavidin (Invitrogen, Carlsbad, CA, USA). […] The complexes were harvested and washed with PBS. The collected beads were mixed with SDS loading buffer for further analysis.
# [1] = molecular target: T2, TP73 encoded protein (P73) (Homo sapiens, UniProt O15350); assay: Streptavidin pull-down and mass spectrometry; format: binding; settings: Raji lysates, gene TP73
# T2 construct: endogenous in cells; host or cells: Raji cells (lysate)
# Method: (§1) Two hundred million Raji cells were harvested and lysed with RIPA buffer [1% Nonidet P-40 (NP-40), 10 mM Tris (pH8.0), 2 mM EDTA, 150 mM NaCl, supplemented with protease inhibitors (1 mM phenylmethylsulphonyl fluoride (PMSF), 1 μg/ml each Aprotinin, Pepstatin, and Leupeptin)]. Twenty milligram lysates were combined with magnetic Streptavidin beads as well as biotin-conjugated compounds 51046, 51048, or 51052, respectively. The complexes were incubated overnight with rotation at 4 °C. The immunoprecipitated samples were washed with RIPA three times and resolved on an SDS-PAGE gel.
# (§2) The following Mass Spectrometry proteomics resources and services are provided by the Quantitative Proteomics Resource Core at School of Medicine at the University of Pennsylvania. Briefly, the peptides were extracted from the gel band and analyzed with an Orbitrap Fusion (Thermo Fisher Scientific, San Jose, CA, USA) attached to an EasyLC 1000 system (Thermo Fisher Scientific, San Jose, CA, USA) at 400 nL/min. The raw MS data were processed using MaxQuant (Version 1.5.3.30)[61], and searched with the UniProt human database. Then the target-decoy approach was used to filter the search results, in which the false discovery rate was less than 1% at the peptide and protein level.
# [2] = molecular target: T3, PIK3CG encoded protein (PI3Kγ) (Homo sapiens, UniProt P48736); assay: Streptavidin pull-down and mass spectrometry; format: binding; settings: Raji lysates, gene PIK3CG
# T3 construct: endogenous in cells; host or cells: Raji cells (lysate)
# Method: as §1, §2
# [3] = Cytotoxicity, cell viability assay in normal cells; format: cell-based; settings: human, replicates
# Excerpt: (§3) Human peripheral blood mononuclear cells (PBMCs), normal T-cells and B-cells were provided by the University of Pennsylvania Human Immunology Core (HIC), and Patient-derived xenografts (PDXs) were obtained from Fox Chase Cancer Center (FCCC). These samples were from different unidentified and healthy donors with written, informed consent. All the procedures were approved by the Institutional Review Board (IRB) and conducted according to the declarations of Helsinki protocols.
# (§4) 5000 cells as indicated were cultured in 96-well plate with 100 μl of media. […] After treatment, the cells were incubated with 100 μl buffer for 10 min at room temperature following the instructions of CellTiter-Glo kit (Promega, Madison, WI). Luminescence was detected using a multi-mode reader Cytation 5 (BioTek, Winooski, VT). […] Two independent experiments done in duplicates were performed.
# MOLM14 xenografts [4] = assay: In vivo tumorigenic assay using xenografts, tumor size; set-up: species or system NOD/SCID mice; key to tumor size (Fig 5d&5e), individual mice: tumor volume in mm^3, calculated as (a × b × b)/2; settings: for tumor size (Fig 5d&5e), individual mice: MOLM14 xenograft
# Method: (§5) Six-week-old male NOD.CB17-Prkdc^scid/J (NOD/SCID) mice (Jackson Labs, Bar Harbor, ME, USA) were used as the human-in-mouse xeno-transplantation model. MOLM14 cells (1 × 10^7 cells) were injected into the subcutaneous space on the left flank of the mice. […] Body weight and tumor size were monitored before every injection. After treatment for 2 weeks, the mice were euthanized by CO2 inhalation and the tumors were carefully excised. The tumor volume (mm^3) was measured and calculated using the formula (a × b × b)/2 (a, the largest diameter of two measurements; b, the smallest diameter of two measurements).
# MOLM14 xenografts [5] = assay: mRNA expression in xenograft tumors in vivo; set-up: species or system NOD/SCID mice; settings: xenograft tumors of treated mice
# Method: Real-time PCR experiments were performed as previously described. The experiments were performed in triplicate.
# as §5
# [6] = tested on: hematologic malignancies derived cell lines; assay: Cell viability assay, panel of hematologic malignancy derived cell lines; format: cell-based, human; settings: 100 nM, 72 h, lymphoma, leukemia and multiple myeloma cell lines (13 cell lines for analogs)
# Method: 5000 cells as indicated were cultured in 96-well plate with 100 μl of media. On the next day, Brusatol or associated analogs were added once to the cells without media change. After treatment, the cells were incubated with 100 μl buffer for 10 min at room temperature following the instructions of CellTiter-Glo kit (Promega, Madison, WI). Luminescence was detected using a multi-mode reader Cytation 5 (BioTek, Winooski, VT). […] Two independent experiments done in duplicates were performed.
# Raji cells [7] = assay: Western blot of PI3K/AKT signaling proteins; format: cell-based, human; settings: Raji, 0, 50 nM, 100 nM; 0, 12 h, 24 h
# Method: Western blot analyses were performed as previously described. Briefly, total cell lysates were separated by SDS-PAGE gel and transferred to nitrocellulose membrane. The membranes were blocked with 5% non-fat milk, probed with specific antibodies, and visualized using the Odyssey scanner (LiCor Inc., Lincoln, NE).
# MOLM14 cells = assay: Cell viability assay (CellTiter-Glo luminescence); format: cell-based; settings: Homo sapiens
# Method: as §4
# Raji cells [8] = assay: Cell viability assay (CellTiter-Glo luminescence); format: cell-based, human; settings: Homo sapiens
# Method: as §4
# SU-DHL-4 cells = assay: Cell viability assay (CellTiter-Glo luminescence); format: cell-based, human; settings: Homo sapiens, SU-DHL-4, 144 h
# Method: as §4
# [9] = Cytotoxicity, cell viability assay in normal cells; format: cell-based, human; settings: human, relative cell viability (Fig 6a), replicates
# Excerpt: as §3, §4
# [10] = In vivo toxicity test, survival rate; set-up: species or system NOD/SCID mice
# Method: The survival rate was recorded to monitor the tolerance of the compounds in these mice.
# [11] = relative cell viability (Fig 6b)
# [12] = relative cell viability (Fig 6c)
# T2 sequence (O15350 whole entry): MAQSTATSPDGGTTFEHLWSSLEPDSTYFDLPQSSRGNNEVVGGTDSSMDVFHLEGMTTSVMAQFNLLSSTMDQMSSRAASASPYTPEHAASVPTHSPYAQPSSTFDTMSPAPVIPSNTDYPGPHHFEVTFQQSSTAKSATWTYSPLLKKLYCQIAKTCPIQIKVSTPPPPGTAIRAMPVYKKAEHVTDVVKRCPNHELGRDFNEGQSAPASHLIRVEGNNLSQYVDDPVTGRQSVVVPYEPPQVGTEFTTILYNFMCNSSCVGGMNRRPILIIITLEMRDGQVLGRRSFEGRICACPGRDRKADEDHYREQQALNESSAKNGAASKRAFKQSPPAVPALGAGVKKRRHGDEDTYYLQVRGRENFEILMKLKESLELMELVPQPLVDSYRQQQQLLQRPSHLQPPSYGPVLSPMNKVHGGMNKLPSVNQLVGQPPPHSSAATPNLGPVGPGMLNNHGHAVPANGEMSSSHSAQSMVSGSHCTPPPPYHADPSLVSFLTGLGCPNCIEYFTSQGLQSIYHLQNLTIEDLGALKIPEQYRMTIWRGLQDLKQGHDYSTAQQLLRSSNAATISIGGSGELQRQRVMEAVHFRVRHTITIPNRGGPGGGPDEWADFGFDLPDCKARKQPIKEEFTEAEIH
# T3 sequence (P48736 whole entry): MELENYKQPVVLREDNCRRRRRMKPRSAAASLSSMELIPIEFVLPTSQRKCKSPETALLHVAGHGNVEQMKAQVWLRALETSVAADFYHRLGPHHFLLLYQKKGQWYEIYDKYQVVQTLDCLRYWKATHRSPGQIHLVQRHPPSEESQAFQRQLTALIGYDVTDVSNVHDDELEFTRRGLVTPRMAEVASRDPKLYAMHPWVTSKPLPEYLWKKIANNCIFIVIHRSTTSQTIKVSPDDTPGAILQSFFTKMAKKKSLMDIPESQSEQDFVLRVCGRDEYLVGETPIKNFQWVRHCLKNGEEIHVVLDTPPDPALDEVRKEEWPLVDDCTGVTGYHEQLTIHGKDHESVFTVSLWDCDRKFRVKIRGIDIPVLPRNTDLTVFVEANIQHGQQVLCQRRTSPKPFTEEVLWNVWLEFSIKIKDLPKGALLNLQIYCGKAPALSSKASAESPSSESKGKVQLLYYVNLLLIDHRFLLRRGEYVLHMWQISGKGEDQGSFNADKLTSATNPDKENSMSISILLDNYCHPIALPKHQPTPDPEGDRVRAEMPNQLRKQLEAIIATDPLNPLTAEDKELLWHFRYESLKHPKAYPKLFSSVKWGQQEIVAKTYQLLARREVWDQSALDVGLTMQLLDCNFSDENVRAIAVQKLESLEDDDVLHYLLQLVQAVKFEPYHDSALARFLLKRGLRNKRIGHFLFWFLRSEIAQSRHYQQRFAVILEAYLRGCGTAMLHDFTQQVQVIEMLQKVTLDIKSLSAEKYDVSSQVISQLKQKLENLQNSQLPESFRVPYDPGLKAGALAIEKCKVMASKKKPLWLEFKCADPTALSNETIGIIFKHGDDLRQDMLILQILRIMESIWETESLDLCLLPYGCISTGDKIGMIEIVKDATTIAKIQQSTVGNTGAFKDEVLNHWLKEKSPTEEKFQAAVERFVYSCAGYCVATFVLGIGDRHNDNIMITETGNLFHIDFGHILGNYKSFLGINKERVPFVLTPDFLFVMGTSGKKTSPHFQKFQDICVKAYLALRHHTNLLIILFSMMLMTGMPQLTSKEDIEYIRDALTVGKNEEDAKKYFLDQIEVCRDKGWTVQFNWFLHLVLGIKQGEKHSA
# T1 sequence (P48736 whole entry): as above
structure (smiles),measurement,setting,value
COC(=O)C12OCC34C(CC5C(C)=C(OC(=O)CCCCCNC(=O)CCCCC6SCC7NC(=O)NC76)C(=O)CC5(C)C3C(O)C1O)OC(=O)C(OC(=O)C=C(C)C)C24 (stereo not drawn) [compound 51052],association with GST-tagged PI3Kγ,GST-tagged PI3Kγ protein,formed a complex
same,Score (sum of the ion scores of all peptides identified),[1],6.0132
same,Score (sum of the ion scores of all peptides identified),[2],6.132
COC(=O)C12OCC34C(CC5C(C)=C(OC(=O)CC(C)N)C(=O)CC5(C)C3C(O)C1O)OC(=O)C(OC(=O)C=C(C)C)C24 (stereo not drawn) [#26],viability at 0.000244141 μM,[3]; [11],96.2%
same,viability at 0.00390625 μM,[3]; [11],86%
same,viability at 0.015625 μM,[3]; [11],81.6%
same,viability at 0.0625 μM,[3]; [11],74.5%
same,viability at 1 μM,[3]; [11],82.6%
same,viability at 0.000244141 μM,[3]; [12],111%
same,viability at 0.00390625 μM,[3]; [12],112%
same,viability at 0.015625 μM,[3]; [12],115%
same,viability at 1 μM,[3]; [12],93.8%
same,"tumor size, inhibitory response","MOLM14 xenografts [4]; 2 mg/kg intraperitoneally three times per week, 2 weeks, vs PBS control",strong and rapid inhibitory response
same,"tumor size (Fig 5d&5e), individual mice",MOLM14 xenografts [4]; 0d,50.8503 and 81.4689 and 79.571 and 83.4481 and 51.3256 and 101.436
same,"tumor size (Fig 5d&5e), individual mice",MOLM14 xenografts [4]; 2d,106.443 and 103.871 and 87.5139 and 68.1449 and 136.175 and 126.294
same,"tumor size (Fig 5d&5e), individual mice",MOLM14 xenografts [4]; 4d,67.7106 and 172.977 and 64.3385 and 73.9417 and 166.255 and 100.157
same,"tumor size (Fig 5d&5e), individual mice",MOLM14 xenografts [4]; 6d,174.013 and 301.003 and 181.944 and 99.2269 and 96.1716 and 48.5716
same,"tumor size (Fig 5d&5e), individual mice",MOLM14 xenografts [4]; 8d,185.825 and 124.577 and 101.125 and 181.307 and 468.229 and 312.088
same,"tumor size (Fig 5d&5e), individual mice",MOLM14 xenografts [4]; 10d,259.199 and 230.595 and 161.819 and 478.339 and 646.864 and 395.944
same,"tumor size (Fig 5d&5e), individual mice",MOLM14 xenografts [4]; 12d,359.944 and 415.708 and 136.428 and 853.399 and 887.802 and 629.337
same,PIK3CG and GSK3B mRNA expression in vivo,MOLM14 xenografts [5],inhibited
same,inhibition of cell viability in panel of cell lines,[6],significantly inhibit
same,"suppression of AKT1, GSK3, and mTOR levels",Raji cells [7],largely similar to Brusatol
same,viability at 0.0390625 µM,"MOLM14 cells; MOLM-14, read-out: relative cell viability (Fig 6e), replicates, MOLM14, Con. 0.0390625 μM, fraction of 0 μM control",12.5%
same,viability at 0.15625 µM,"MOLM14 cells; MOLM-14, read-out: relative cell viability (Fig 6e), replicates, MOLM14, Con. 0.15625 μM, fraction of 0 μM control",7.37%
same,viability at 0.625 µM,"MOLM14 cells; MOLM-14, read-out: relative cell viability (Fig 6e), replicates, MOLM14, Con. 0.625 μM, fraction of 0 μM control",5.55%
same,viability at 10 µM,"MOLM14 cells; MOLM-14, read-out: relative cell viability (Fig 6e), replicates, MOLM14, Con. 10 μM, fraction of 0 μM control",4.05%
same,pIC50,"Raji cells [8]; analogs, 72 h, Fig. 5c, read-out: IC50",7.42
same,viability at 0.00244141 µM,"Raji cells [8]; read-out: relative cell viability (Fig 6f), replicates, Raji, Con. 0.00244141 μM, fraction of 0 μM control",105%
same,viability at 0.0390625 µM,"Raji cells [8]; read-out: relative cell viability (Fig 6f), replicates, Raji, Con. 0.0390625 μM, fraction of 0 μM control",35%
same,viability at 0.15625 µM,"Raji cells [8]; read-out: relative cell viability (Fig 6f), replicates, Raji, Con. 0.15625 μM, fraction of 0 μM control",16.4%
same,viability at 0.625 µM,"Raji cells [8]; read-out: relative cell viability (Fig 6f), replicates, Raji, Con. 0.625 μM, fraction of 0 μM control",7.06%
same,viability at 10 µM,"Raji cells [8]; read-out: relative cell viability (Fig 6f), replicates, Raji, Con. 10 μM, fraction of 0 μM control",4.98%
same,viability at 0.00244141 µM,"SU-DHL-4 cells; read-out: relative cell viability (Fig 6d), replicates, SU-DHL-4, Con. 0.00244141 μM, fraction of 0 μM control",125%
same,viability at 0.0390625 µM,"SU-DHL-4 cells; read-out: relative cell viability (Fig 6d), replicates, SU-DHL-4, Con. 0.0390625 μM, fraction of 0 μM control",36.6%
same,viability at 0.15625 µM,"SU-DHL-4 cells; read-out: relative cell viability (Fig 6d), replicates, SU-DHL-4, Con. 0.15625 μM, fraction of 0 μM control",18.6%
same,viability at 0.625 µM,"SU-DHL-4 cells; read-out: relative cell viability (Fig 6d), replicates, SU-DHL-4, Con. 0.625 μM, fraction of 0 μM control",9.14%
same,viability at 10 µM,"SU-DHL-4 cells; read-out: relative cell viability (Fig 6d), replicates, SU-DHL-4, Con. 10 μM, fraction of 0 μM control",6.62%
same,viability at 0.000244141 μM,[9],103%
same,viability at 0.00390625 μM,[9],85%
same,viability at 0.015625 μM,[9],83.1%
same,viability at 0.0625 μM,[9],80.7%
same,viability at 1 μM,[9],61.8%
same,toxicity in vivo (survival),"[10]; 10 mg/kg intraperitoneally every other day, monitored 24 days, 4 mice per group",did not show any obvious signs of toxicity
same,"survival event status per mouse (Fig 6i; 1 = event/death, 0 = censored)","[10]; 10mg/kg, Days Post-treatment 24",0
